Experiment [1] can be described thus: Inhibition of DC-SIGN extracellular domain (unknown origin) binding to HIV gp120 by surface plasmon resonance analysis. In general terms: In SPR one partner is held on a chip, and binding of the other changes the refractive index at the surface.
A short description of experiment [2]: Inhibition of DC-SIGN (unknown origin) expressed in human Jurkat cells assessed as inhibition of EBOV-pseudotyped virus infection measured after 48 hrs by luciferase assay.
Experiment [3] is described as follows: Inhibition of full-length DC-SIGN (unknown origin) expressed in human monocyte derived dendritic cells assessed as inhibition of binding to recombinant HCMV gB using flow cytometry. A general note: A flow cytometer gives signals particle by particle.

One may read the IC50 as the point on the concentration scale where inhibition reaches its midpoint.

For `CC(C)(C)c1cc2c(OCCCn3cc(CN(O)C(=O)CCCCCn4cc(CO[C@H]5O[C@H](CO)[C@@H](O)[C@H](O)[C@@H]5O)nn4)nn3)c(c1)Cc1cc(C(C)(C)C)cc(c1OCCCn1cc(CN(O)C(=O)CCCCCn3cc(CO[C@H]4O[C@H](CO)[C@@H](O)[C@H](O)[C@@H]4O)nn3)nn1)Cc1cc(C(C)(C)C)cc(c1OCCCn1cc(CN(O)C(=O)CCCCCn3cc(CO[C@H]4O[C@H](CO)[C@@H](O)[C@H](O)[C@@H]4O)nn3)nn1)Cc1cc(C(C)(C)C)cc(c1OCCCn1cc(CN(O)C(=O)CCCCCn3cc(CO[C@H]4O[C@H](CO)[C@@H](O)[C@H](O)[C@@H]4O)nn3)nn1)C2`, the IC50 came out at 37.5 µM in experiment [1], 0.634 µM in experiment [2] and 0.156 µM in experiment [3].

`C[C@@H]1O[C@@H](OCc2cn(CCCCCC(=O)N(O)Cc3cn(CCCOc4c5cc(C(C)(C)C)cc4Cc4cc(C(C)(C)C)cc(c4OCCCn4cc(CN(O)C(=O)CCCCCn6cc(CO[C@@H]7O[C@@H](C)[C@@H](O)[C@@H](O)[C@@H]7O)nn6)nn4)Cc4cc(C(C)(C)C)cc(c4OCCCn4cc(CN(O)C(=O)CCCCCn6cc(CO[C@@H]7O[C@@H](C)[C@@H](O)[C@@H](O)[C@@H]7O)nn6)nn4)Cc4cc(C(C)(C)C)cc(c4OCCCn4cc(CN(O)C(=O)CCCCCn6cc(CO[C@@H]7O[C@@H](C)[C@@H](O)[C@@H](O)[C@@H]7O)nn6)nn4)C5)nn3)nn2)[C@@H](O)[C@H](O)[C@@H]1O`: the values for the half-inhibitory concentration (IC50) in experiment [1], in experiment [2] and in experiment [3] were 26.8 µM, 0.289 µM and 0.188 µM, respectively.

On to `COC(=O)CNC(=O)CN(Cc1cn(CCCOc2c3cc(C(C)(C)C)cc2Cc2cc(C(C)(C)C)cc(c2OCCCn2cc(CN(CC(=O)NCC(=O)OC)C(=O)CCCCCn4cc(CO[C@@H]5O[C@@H](C)[C@@H](O)[C@@H](O)[C@@H]5O)nn4)nn2)Cc2cc(C(C)(C)C)cc(c2OCCCn2cc(CN(CC(=O)NCC(=O)OC)C(=O)CCCCCn4cc(CO[C@@H]5O[C@@H](C)[C@@H](O)[C@@H](O)[C@@H]5O)nn4)nn2)Cc2cc(C(C)(C)C)cc(c2OCCCn2cc(CN(CC(=O)NCC(=O)OC)C(=O)CCCCCn4cc(CO[C@@H]5O[C@@H](C)[C@@H](O)[C@@H](O)[C@@H]5O)nn4)nn2)C3)nn1)C(=O)CCCCCn1cc(CO[C@@H]2O[C@@H](C)[C@@H](O)[C@@H](O)[C@@H]2O)nn1`, for which the figures for the IC50 in experiment [1], in experiment [2] and in experiment [3] were 26.5 µM, 0.218 µM and 0.777 µM, respectively.

`COC(=O)CNC(=O)CN(Cc1cn(CCCOc2c3cc(C(C)(C)C)cc2Sc2cc(C(C)(C)C)cc(c2OCCCn2cc(CN(CC(=O)NCC(=O)OC)C(=O)CCCCCn4cc(CO[C@H]5O[C@H](CO)[C@@H](O)[C@H](O)[C@@H]5O)nn4)nn2)Sc2cc(C(C)(C)C)cc(c2OCCCn2cc(CN(CC(=O)NCC(=O)OC)C(=O)CCCCCn4cc(CO[C@H]5O[C@H](CO)[C@@H](O)[C@H](O)[C@@H]5O)nn4)nn2)Sc2cc(C(C)(C)C)cc(c2OCCCn2cc(CN(CC(=O)NCC(=O)OC)C(=O)CCCCCn4cc(CO[C@H]5O[C@H](CO)[C@@H](O)[C@H](O)[C@@H]5O)nn4)nn2)S3)nn1)C(=O)CCCCCn1cc(CO[C@H]2O[C@H](CO)[C@@H](O)[C@H](O)[C@@H]2O)nn1` came in with an IC50 in experiment [1] of 14.6 µM.

`COC(=O)CNC(=O)CN(Cc1cn(CCCOc2c3cc(C(C)(C)C)cc2Cc2cc(C(C)(C)C)cc(c2OCCCn2cc(CN(CC(=O)NCC(=O)OC)C(=O)CCCCCn4cc(CO[C@H]5O[C@H](CO)[C@@H](O)[C@H](O)[C@@H]5O)nn4)nn2)Cc2cc(C(C)(C)C)cc(c2OCCCn2cc(CN(CC(=O)NCC(=O)OC)C(=O)CCCCCn4cc(CO[C@H]5O[C@H](CO)[C@@H](O)[C@H](O)[C@@H]5O)nn4)nn2)Cc2cc(C(C)(C)C)cc(c2OCCCn2cc(CN(CC(=O)NCC(=O)OC)C(=O)CCCCCn4cc(CO[C@H]5O[C@H](CO)[C@@H](O)[C@H](O)[C@@H]5O)nn4)nn2)C3)nn1)C(=O)CCCCCn1cc(CO[C@H]2O[C@H](CO)[C@@H](O)[C@H](O)[C@@H]2O)nn1` showed an IC50 in experiment [1] of 45.3 µM.

Regarding `COC(=O)CNC(=O)CN(Cc1cn(CCCOc2c3cc(C(C)(C)C)cc2Sc2cc(C(C)(C)C)cc(c2OCCCn2cc(CN(CC(=O)NCC(=O)OC)C(=O)CCCCCn4cc(CO[C@@H]5O[C@@H](C)[C@@H](O)[C@@H](O)[C@@H]5O)nn4)nn2)Sc2cc(C(C)(C)C)cc(c2OCCCn2cc(CN(CC(=O)NCC(=O)OC)C(=O)CCCCCn4cc(CO[C@@H]5O[C@@H](C)[C@@H](O)[C@@H](O)[C@@H]5O)nn4)nn2)Sc2cc(C(C)(C)C)cc(c2OCCCn2cc(CN(CC(=O)NCC(=O)OC)C(=O)CCCCCn4cc(CO[C@@H]5O[C@@H](C)[C@@H](O)[C@@H](O)[C@@H]5O)nn4)nn2)S3)nn1)C(=O)CCCCCn1cc(CO[C@@H]2O[C@@H](C)[C@@H](O)[C@@H](O)[C@@H]2O)nn1`, the concentration for half-maximal inhibition (IC50) is 17 µM in experiment [1], 0.602 µM in experiment [2] and 1 µM in experiment [3].

On to `CO[C@H]1O[C@H](CO)[C@@H](O)[C@H](O)[C@@H]1O` [methyl alpha-D-mannoside], for which the half-inhibitory concentration (IC50) in experiment [2] stood at 1270 µM.

For the origin of these results see BindingDB's records for doi:10.1021/acs.jmedchem.1c00818 (University of Picardy Jules Verne, 2021).
